From patent publication US9284302B2, “Cyclobutyl benzimidazoles as PDE 10 inhibitors” (Merck Sharp & Dohme Corp., priority 2012, dated 2016)

Molecular target: human PDE10A2 (Homo sapiens (Human), UniProt Q9Y233)
Test: PDE10 fluorescence polarization (IMAP FP) inhibition assay
Assay type: biochemical
Settings: apparent inhibition constant; FAM-labeled cAMP substrate 50 nM, room temperature; read-out: PDE10a Ki
Experimental: The activity of the compounds in accordance with the present invention as PDE10 inhibitors may be readily determined without undue experimentation using a fluorescence polarization (FP) methodology that is well known in the art (Huang, W., et al., J. Biomol Screen, 2002, 7: 215).
In a typical experiment the PDE10 inhibitory activity of the compounds of the present invention was determined in accordance with the following experimental method. PDE10A2 was amplified from human fetal brain cDNA (Clontech, Mountain View, Calif.) using a forward primer corresponding to nucleotides 56-77 of human PDE10A2 (Accession No. AF127480, Genbank Identifier 4894716), containing a Kozak consensus sequence, and a reverse primer corresponding to nucleotides 2406-2413 of human PDE10A2 (Accession No. AF127480, Genbank Identifier 4894716). Amplification with Easy-A polymerase (Stratagene, La Jolla, Calif.) was 95° C. for 2 minutes followed by thirty three cycles of 95° C. for 40 seconds, 55° C. for 30 seconds, and 72° C. for 2 minutes 48 seconds. Final extension was 72° C. for 7 minutes. The PCR product was TA cloned into pcDNA3.2-TOPO (Invitrogen, Carlsbad, Calif.) according to standard protocol. AD293 cells with 70-80% confluency were transiently transfected with human PDE10A2/pcDNA3.2-TOPO using Lipofectamine 2000 according to manufacturer specifications (Invitrogen, Carlsbad, Calif.). Cells were harvested 48 hours post-transfection and lysed by sonication (setting 3, 10×5 sec pulses) in a buffer containing 20 mM HEPES, 1 mM EDTA and protease inhibitor cocktail (Roche). Lysate was collected by centrifugation at 75,000 xg for 20 minutes. Supernatant containing the cytoplasmic fraction was used for evaluation of PDE10A2 activity. The fluorescence polarization assay for cyclic nucleotide phosphodiesterases was performed using an IMAP® FP kit supplied by Molecular Devices, Sunnyvale, Calif. (product #R8139). IMAP® technology has been applied previously to phosphodiesterase assays (Huang, W., et al., J. Biomol Screen, 2002, 7: 215). Assays were performed at room temperature in 384-well microtiter plates with an incubation volume of 20.2 μL. Solutions of test compounds were prepared in DMSO and serially diluted with DMSO to yield 8 μL of each of 10 solutions differing by 3-fold in concentration, at 32 serial dilutions per plate. […] 0% of inhibition is determined by using DMSO (1% final concentrations). […]

Sequence of human PDE10A2 (Q9Y233 267-1055): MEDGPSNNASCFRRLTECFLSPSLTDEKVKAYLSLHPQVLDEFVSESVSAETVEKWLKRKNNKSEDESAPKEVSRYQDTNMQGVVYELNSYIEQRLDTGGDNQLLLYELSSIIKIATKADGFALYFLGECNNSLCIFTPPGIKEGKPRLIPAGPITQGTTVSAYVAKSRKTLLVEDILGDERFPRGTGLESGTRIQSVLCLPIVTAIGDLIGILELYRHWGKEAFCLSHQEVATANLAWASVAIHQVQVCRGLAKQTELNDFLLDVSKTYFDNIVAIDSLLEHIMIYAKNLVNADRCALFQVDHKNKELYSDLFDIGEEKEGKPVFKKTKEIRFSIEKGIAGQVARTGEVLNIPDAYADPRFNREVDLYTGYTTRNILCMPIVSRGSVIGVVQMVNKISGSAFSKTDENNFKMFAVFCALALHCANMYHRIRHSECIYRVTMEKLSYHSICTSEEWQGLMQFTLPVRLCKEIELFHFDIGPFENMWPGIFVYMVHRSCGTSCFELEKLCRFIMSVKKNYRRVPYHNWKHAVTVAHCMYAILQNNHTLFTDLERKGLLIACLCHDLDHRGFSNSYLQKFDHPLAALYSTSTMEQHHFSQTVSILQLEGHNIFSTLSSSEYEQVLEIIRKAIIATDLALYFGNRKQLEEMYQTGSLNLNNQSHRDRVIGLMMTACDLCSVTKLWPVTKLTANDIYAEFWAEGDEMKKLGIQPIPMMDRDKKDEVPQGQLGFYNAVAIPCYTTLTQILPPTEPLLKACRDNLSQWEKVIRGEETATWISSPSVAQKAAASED

| Ki [nM] | Compound |
| --- | --- |
| > 75 | Cc1nc(-n2nc(C)nc2C)cc(C2(O)CC(c3nc4ccccc4n3C)C2)n1 (stereo not shown) [Example 1, 1-(6-(3,5-dimethyl-1H-1,2,4-triazol-1-yl)-2-methylpyrimidin-4-yl)-3-(1-methyl-1H-benzo[d]imidazol-2-yl)cyclobutanol] |
| 88 | Cc1nc(-n2nc(C)nc2C)cc(C2(F)CC(c3nc4ccccc4n3C)C2)n1 (stereo not shown) [Example 2, 2-(3-(6-(3,5-dimethyl-1H-1,2,4-triazol-1-yl)-2-methylpyrimidin-4-yl)-3-fluorocyclobutyl)-1-methyl-1H-benzo[d]imidazole] |
| 2.8 | Cc1nc(-n2nc(C)nc2C)cc([C@H]2C[C@@H](c3nc4ccccc4n3C)C2)n1 [Example 3, 2-((cis)-3-(6-(3,5-dimethyl-1H-1,2,4-triazol-1-yl)-2-methylpyrimidin-4-yl)cyclobutyl)-1-methyl-1H-benzo[d]imidazole] |
| 4.7 | Cc1nc(-n2nc(C)nc2C)cc([C@H]2C[C@H](c3nc4ccccc4n3C)C2)n1 [Example 4, 2-((trans)-3-(6-(3,5-dimethyl-1H-1,2,4-triazol-1-yl)-2-methylpyrimidin-4-yl)cyclobutyl)-1-methyl-1H-benzo[d]imidazole] |
